According to US20250255874A1, “Methods for Treating Immune Thrombocytopenia By Administering (R)-2-[3-[4-Amino-3-(2-Fluoro-4-Phenoxy-Phenyl)Pyrazolo[3,4-D]Pyrimidin-1-YL]Piperidine-1-Carbonyl]-4-Methyl-4-[4-(Oxetan-3-YL)Piperazin-1-YL]Pent-2-Enentrile” (Principia Biopharma Inc., priority 2022, published 2025):

Experiments:
[1] = test system: spontaneous canine pemphigus foliaceus; assay: spontaneous canine pemphigus foliaceus; settings: dog, in vivo
[2] = test system: patients with immune thrombocytopenia who initiated 400 mg BID; assay: Clinical predictors of response, exploratory analysis of Phase 1/2 study (univariate logistic regression); type: in vivo, human
Source text: Clinical predictors were selected based on clinical considerations anticipated to be associated with platelet response and evaluated by univariate logistic regression models. For continuous variables, the t test was used to test for differences, whereas for categorical variables, the Fisher exact test was used. PK exposure at steady-state was estimated based on post hoc analysis from a previously established population PK model.

CC(C)(C=C(C#N)C(=O)N1CCC[C@@H](n2nc(-c3ccc(Oc4ccccc4)cc3F)c3c(N)ncnc32)C1)N1CCN(C2COC2)CC1 [rilzabrutinib, (R)-2-[3-[4-amino-3-(2-fluoro-4-phenoxy-phenyl)pyrazolo[3,4-d]pyrimidin-1-yl]piperidine-1-carbonyl]-4-methyl-4-[4-(oxetan-3-yl)piperazin-1-yl]pent-2-enenitrile]
anti-inflammatory effects [1]: rapid and significant anti-inflammatory effects | early responders, proportion of patients ([2]; patients who received prior rituximab): 14% | early responders, proportion of patients ([2]; patients with no prior rituximab): 48% | responders, proportion of patients ([2]; patients with prior rituximab): 23% | responders, proportion of patients ([2]; patients without prior TPO-RA): 64% | responders, proportion of patients ([2]; patients without prior rituximab): 57%
